This assay deals with P388 leukemia ip, CD2F1 mice, survival T/C. Kind of assay: NCI In Vivo Anticancer Drug Screen. Data for tumor model P388 Leukemia (intraperitoneal) in CD2F1 (CDF1) mice. Conditions: endpoint: median survival time, higher = longer survival. The essentials:
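Mice carrying the transplanted tumor received test compound or vehicle. Survival was recorded in each group, and the value is the treated-group measurement divided by that of the vehicle-treated control group.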

Where [1] appears, read: dose: 50.0 mg/kg/injection, schedule: Q01DX005 (ip), vehicle: Klucel (hydroxypropylcellulose) (HPC).
The mark [2] stands for this setting: dose: 100.0 mg/kg/injection, schedule: Q01DX005 (ip), vehicle: Klucel (hydroxypropylcellulose) (HPC).
Where [3] appears, read: dose: 200.0 mg/kg/injection, schedule: Q01DX005 (ip), vehicle: Klucel (hydroxypropylcellulose) (HPC).
Where [4] appears, read: dose: 50.0 mg/kg/injection, schedule: Q01DX005 (ip), vehicle: saline with Tween-80.
[5] abbreviates: dose: 100.0 mg/kg/injection, schedule: Q01DX005 (ip), vehicle: saline with Tween-80.
The mark [6] stands for this setting: dose: 60.0 mg/kg/injection, schedule: Q01DX005 (ip), vehicle: saline with Tween-80.
The mark [7] stands for this setting: dose: 120.0 mg/kg/injection, schedule: Q01DX005 (ip), vehicle: saline with Tween-80.
The mark [8] stands for this setting: dose: 240.0 mg/kg/injection, schedule: Q01DX005 (ip), vehicle: saline with Tween-80.
[9] abbreviates: dose: 100.0 mg/kg/injection, schedule: Q04DX003 (ip), vehicle: saline.
Setting [10] is: dose: 50.0 mg/kg/injection, schedule: Q01DX009 (ip), vehicle: saline with Tween-80.
Setting [11] is: dose: 25.0 mg/kg/injection, schedule: Q01DX009 (ip), vehicle: saline with Tween-80.
Setting [12] is: dose: 100.0 mg/kg/injection, schedule: Q01DX001 (ip), vehicle: Klucel (hydroxypropylcellulose) (HPC).
[13] abbreviates: dose: 200.0 mg/kg/injection, schedule: Q01DX001 (ip), vehicle: Klucel (hydroxypropylcellulose) (HPC).
Setting [14] is: dose: 400.0 mg/kg/injection, schedule: Q01DX001 (ip), vehicle: Klucel (hydroxypropylcellulose) (HPC).

T/C data for 24 compounds are collected here from PubChem BioAssay AID330 (DTP/NCI, 2004).

Several values for one entry are separate records, joined by “and”; a condition that tells them apart may be missing. Identical values can stand only once. Inconclusive results and toxic doses are left out. Peptide text beside a SMILES is read from it. * marks the point of attachment. βNA = c1ccc2cc(N*)ccc2c1

Consider `C[N+](C)(C)NP(=O)(N[N+](C)(C)C)Oc1ccccc1`, for which the T/C is 100 % of control and 110 % of control and 93 % of control (dose: 60.0 mg/kg/injection, schedule: Q01DX005 (ip), vehicle: saline); 103 % of control and 110 % of control (2×) (dose: 120.0 mg/kg/injection, schedule: Q01DX005 (ip), vehicle: saline); 100 % of control and 104 % of control (dose: 240.0 mg/kg/injection, schedule: Q01DX005 (ip), vehicle: saline); 104 % of control and 95 % of control (dose: 480.0 mg/kg/injection, schedule: Q01DX005 (ip), vehicle: saline).

For `N=c1ncn(C2OC(CO)C(O)C2O)c2nc[nH]c12` (stereo not given), the T/C was 113 % of control (dose: 6.25 mg/kg/injection, schedule: Q01DX009 (ip), vehicle: Klucel (hydroxypropylcellulose) (HPC)) and 108 % of control (dose: 12.5 mg/kg/injection, schedule: Q01DX009 (ip), vehicle: Klucel (hydroxypropylcellulose) (HPC)).

In the case of `BrCCCOc1ccccc1Br`, the T/C is, setting by setting: under setting [1], 101 % of control; under setting [2], 97 % of control; under setting [3], 105 % of control.

`CCCCCCCN(CCCCCCC)CC(O)c1ccc2ccc3ccc(Cl)cc3c2c1` (stereo not given): the T/C is 96 % of control under setting [4]; 96 % of control under setting [5]; 104 % of control (dose: 200.0 mg/kg/injection, schedule: Q01DX005 (ip), vehicle: saline with Tween-80).

With `CC1C2C=CC1C(c1c3ccc(=O)cc-3oc3cc(O)ccc13)C2C(=O)O` (stereo not given), the T/C reads like this: under setting [6], 99 % of control; under setting [7], 100 % of control; under setting [8], 101 % of control.

`C=CCNC(=S)N/N=C(\CCC)c1ccccn1`: the T/C runs as follows: under setting [4], 114 % of control; under setting [5], 121 % of control.

As for `CN(C)C(=S)/N=C1/SCS(=O)(=O)N1c1ccccc1`, the T/C by setting is: (dose: 50.0 mg/kg/injection, schedule: Q04DX003 (ip), vehicle: saline with Tween-80) 98 % of control; (dose: 100.0 mg/kg/injection, schedule: Q04DX003 (ip), vehicle: saline with Tween-80) 104 % of control; (dose: 200.0 mg/kg/injection, schedule: Q04DX003 (ip), vehicle: saline with Tween-80) 95 % of control.

As to `Cc1ccc(S(=O)c2ccccc2C(O)(C(F)(F)F)C(F)(F)F)cc1` (stereo not given), the T/C runs as follows: under setting [1], 99 % of control; under setting [2], 99 % of control; under setting [3], 92 % of control.

Regarding `Cc1nc2scc(-c3ccccc3)n2c(=O)c1CN1CCCCC1`, the T/C runs as follows: (dose: 37.5 mg/kg/injection, schedule: Q04DX002 (ip), vehicle: Klucel (hydroxypropylcellulose) (HPC)) 103 % of control; (dose: 75.0 mg/kg/injection, schedule: Q04DX002 (ip), vehicle: Klucel (hydroxypropylcellulose) (HPC)) 106 % of control; (dose: 150.0 mg/kg/injection, schedule: Q04DX002 (ip), vehicle: Klucel (hydroxypropylcellulose) (HPC)) 95 % of control.

As for `O=C(CBr)c1ccc(C(F)(F)F)cc1`, the T/C runs as follows: (dose: 6.25 mg/kg/injection, schedule: Q01DX009 (ip), vehicle: DMSO) 99 % of control; (dose: 12.5 mg/kg/injection, schedule: Q01DX009 (ip), vehicle: DMSO) 88 % of control.

For `Cc1[nH]c(=O)[nH]c(=O)c1/C=C/C(=O)NC(CO)CSCc1ccccc1` (stereo not given), the T/C is 94 % of control (dose: 6.25 mg/kg/injection, schedule: Q01DX009 (ip), vehicle: other); 94 % of control (dose: 12.5 mg/kg/injection, schedule: Q01DX009 (ip), vehicle: other); 94 % of control (dose: 25.0 mg/kg/injection, schedule: Q01DX009 (ip), vehicle: other); 88 % of control (dose: 50.0 mg/kg/injection, schedule: Q01DX009 (ip), vehicle: other); 87 % of control (dose: 100.0 mg/kg/injection, schedule: Q01DX009 (ip), vehicle: other); 98 % of control (dose: 200.0 mg/kg/injection, schedule: Q01DX009 (ip), vehicle: other). The T/C (dose: 400.0 mg/kg/injection, schedule: Q01DX009 (ip), vehicle: other) is 95 % of control.

For `CC(N)C(=O)NC(Cc1ccccc1)C(=O)N1CCCC1C(=O)Nc1ccc2ccccc2c1` (stereo not drawn) (H-Ala-Phe-Pro-βNA; configuration not given here), the T/C runs as follows: (dose: 50.0 mg/kg/injection, schedule: Q01DX005 (ip), vehicle: saline) 106 % of control; (dose: 100.0 mg/kg/injection, schedule: Q01DX005 (ip), vehicle: saline) 92 % of control.

For `CCCCN=C(N)N/N=C(\C)c1ccc2c(c1)Cc1ccccc1-2`, the T/C (dose: 25.0 mg/kg/injection, schedule: Q04DX002 (ip), vehicle: saline with Tween-80) is 104 % of control.

As to `Cn1c(=O)c2c(nc(/N=C/c3ccco3)n2C)n(C)c1=O`, the T/C reads like this: under setting [9], 91 % of control; (dose: 200.0 mg/kg/injection, schedule: Q04DX003 (ip), vehicle: saline) 90 % of control; (dose: 400.0 mg/kg/injection, schedule: Q04DX003 (ip), vehicle: saline) 92 % of control.

Take `CCC(C)C(NC(=O)C(F)(F)F)C(=O)O` (stereo not given): the T/C was 98 % of control under setting [10]; 98 % of control (dose: 100.0 mg/kg/injection, schedule: Q01DX009 (ip), vehicle: saline with Tween-80); 103 % of control (dose: 200.0 mg/kg/injection, schedule: Q01DX009 (ip), vehicle: saline with Tween-80).

Turning to `CN(C)c1ccc(-c2c3ccccc3nc3ccccc23)cc1`, the T/C reads like this: (dose: 12.5 mg/kg/injection, schedule: Q01DX009 (ip), vehicle: saline with Tween-80) 90 % of control; under setting [11], 90 % of control; under setting [10], 100 % of control.

Consider `[Cl][Pt+2][Cl].[NH-]c1ccc2[nH]c(=S)sc2c1.[NH-]c1ccc2[nH]c(=S)sc2c1`, for which the T/C (dose: 100.0 mg/kg/injection, schedule: Q01DX001 (sc), vehicle: olive oil, sesame oil, peanut oil) was 104 % of control; the T/C (dose: 200.0 mg/kg/injection, schedule: Q01DX001 (sc), vehicle: olive oil, sesame oil, peanut oil) is 114 % of control; the T/C (dose: 400.0 mg/kg/injection, schedule: Q01DX001 (sc), vehicle: olive oil, sesame oil, peanut oil) is 104 % of control.

On to `O=C(Nc1ccc(C2=NCCN2)cc1)Nc1cccc(NC(=O)Nc2cccc(C3=NCCN3)c2)c1`, for which the T/C (dose: 0.75 mg/kg/injection, schedule: Q04DX003 (ip), vehicle: saline with Tween-80) is 104 % of control; the T/C (dose: 1.5 mg/kg/injection, schedule: Q04DX003 (ip), vehicle: saline with Tween-80) was 118 % of control; the T/C (dose: 8.0 mg/kg/injection, schedule: Q01DX009 (ip), vehicle: saline with Tween-80) was 163 % of control; the T/C (dose: 12.0 mg/kg/injection, schedule: Q01DX009 (ip), vehicle: saline with Tween-80) is 254 % of control; the T/C (dose: 12.5 mg/kg/injection, schedule: Q04DX003 (ip), vehicle: saline with Tween-80) was 150 % of control; the T/C (dose: 18.0 mg/kg/injection, schedule: Q01DX009 (ip), vehicle: saline with Tween-80) was 272 % of control. In addition, the T/C under setting [9] is 104 % of control.

For `Nc1nnc(CCC(=O)Nc2cc(Cl)c(Cl)cc2Cl)n1N`, the T/C was 108 % of control under setting [6], 111 % of control under setting [7] and 121 % of control under setting [8].

With `CCOCN(COCC)c1ccccn1`, the T/C under setting [11] was 100 % of control; the T/C under setting [10] is 105 % of control and 116 % of control.

For `CC1(C)CC(OS(=O)(=O)c2ccccc2)CC(C)(C)N1O`, the T/C is, setting by setting: under setting [12], 97 % of control; under setting [13], 97 % of control; under setting [14], 97 % of control.

Consider `CC1N(C)c2cc3[nH]c(=O)cc(C(F)(F)F)c3cc2C1(C)C` (stereo not given), for which the T/C runs as follows: under setting [12], 92 % of control and 96 % of control; under setting [13], 103 % of control and 94 % of control; under setting [14], 121 % of control.

For `CNC(=O)N1CCOC1c1ccc(NC(=O)OC)cc1` (stereo not given), the T/C runs as follows: under setting [6], 96 % of control; under setting [7], 90 % of control; under setting [8], 95 % of control.

Regarding `CC[CH2][Sn]([CH2]CC)([O]C(C)=O)[c]1ccccc1`, the T/C was 90 % of control (dose: 1.56 mg/kg/injection, schedule: Q01DX009 (ip), vehicle: saline); 86 % of control (dose: 3.12 mg/kg/injection, schedule: Q01DX009 (ip), vehicle: saline); 87 % of control (dose: 6.25 mg/kg/injection, schedule: Q01DX009 (ip), vehicle: saline); 113 % of control (dose: 50.0 mg/kg/injection, schedule: Q01DX009 (ip), vehicle: saline).
